According to patent US20230002372A1, “AZAINDOLE CARBOXAMIDE COMPOUNDS FOR THE TREATMENT OF MYCOBACTERIAL INFECTIONS” (THE GLOBAL ALLIANCE FOR TB DRUG DEVELOPMENT, INC., priority 2019, published 2023):
Converted amounts (≈) assume the structure as drawn.

These compounds were tested on M tb H37Rv (assay: MIC determination against M tb H37Rv (green fluorescent protein reporter assay; MIC-MABA)). Conditions: Mycobacterium tuberculosis, H37RV, 240 h, read-out: M. TB H37Rv: MIC-MABA: MIC, M. tb H37Rv; 7H9 broth; 10 days exposure; MIC = lowest concentration inhibiting fluorescence by 90%.
Assay type: cell-based, Mycobacterium tuberculosis

Row | SMILES | MIC [µg/mL]
1 | Cc1nc2[nH]c(C(=O)N[C@H]3CC[Si](C)(C)C3)cc2c(F)c1F (single isomer, unassigned) [MPL-295B] | < 0.004
2 | Cc1nc2[nH]c(C(=O)NC3CCC[Si](C)(C)CCC3)cc2c(F)c1F [MPL-301, N-(1,1-dimethylsilocan-5-yl)-4,5-difluoro-6-methyl-1H-pyrrolo[2,3-b]pyridine-2-carboxamide] | 0.015 (≈ 0.041 µM)
3 | Cc1cc(Cl)c2cc(C(=O)NC3CCC[Si](C)(C)CCC3)[nH]c2n1 [MPL-305] | 0.015 (≈ 0.0412 µM)
4 | Cc1ncc2[nH]c(C(=O)NC3CC[Si](C)(C)CC3)cc2c1F [MPL-318, N-(1,1-dimethylsilinan-4-yl)-4-fluoro-5-methyl-1H-pyrrolo[2,3-c]pyridine-2-carboxamide] | 0.134 (≈ 0.419 µM)
5 | Cc1ncc2[nH]c(C(=O)NC3CC[Si]4(CCCC4)CC3)cc2c1F [MPL-319, 4-fluoro-5-methyl-N-(5-silaspiro[4.5]decan-8-yl)-1H-pyrrolo[2,3-c]pyridine-2-carboxamide] | 0.499 (≈ 1.44 µM)
6 | Cc1ncc2[nH]c(C(=O)NC3CC[Si]4(CCCCC4)CC3)cc2c1F [MPL-320, 4-fluoro-5-methyl-N-(6-silaspiro[5.5]undecan-3-yl)-1H-pyrrolo[2,3-c]pyridine-2-carboxamide] | 0.25 (≈ 0.695 µM)
7 | C[Si]1(C)CCC(NC(=O)c2cc3cc(C(F)(F)F)ncc3[nH]2)CC1 [MPL-321, N-(1,1-dimethylsilinan-4-yl)-5-(trifluoromethyl)-1H-pyrrolo[2,3-c]pyridine-2-carboxamide] | 0.519 (≈ 1.46 µM)
8 | C[Si]1(C)CCC(NC(=O)c2cc3c(F)c(C(F)(F)F)ncc3[nH]2)CC1 [MPL-322, N-(1,1-dimethylsilinan-4-yl)-4-fluoro-5-(trifluoromethyl)-1H-pyrrolo[2,3-c]pyridine-2-carboxamide] | 0.484 (≈ 1.3 µM)
9 | Cc1ncc2[nH]c(C(=O)NC3CC[Si](C)(C)CC3)cc2c1Cl [MPL-328, 4-chloro-N-(1,1-dimethylsilinan-4-yl)-5-methyl-1H-pyrrolo[2,3-c]pyridine-2-carboxamide] | 0.061 (≈ 0.182 µM)
10 | C[Si]1(C)CCC(NC(=O)c2cc3c(Cl)c(C(F)(F)F)ncc3[nH]2)CC1 [MPL-329, 4-chloro-N-(1,1-dimethylsilinan-4-yl)-5-(trifluoromethyl)-1H-pyrrolo[2,3-c]pyridine-2-carboxamide] | 0.491 (≈ 1.26 µM)
11 | C[Si]1(C)CCC(NC(=O)c2cc3c(F)c(Cl)ncc3[nH]2)CC1 [MPL-345, 5-chloro-N-(1,1-dimethylsilinan-4-yl)-4-fluoro-1H-pyrrolo[2,3-c]pyridine-2-carboxamide] | 0.498 (≈ 1.47 µM)
12 | C[Si]1(C)CCCC(NC(=O)c2cc3c(F)c(Cl)ncc3[nH]2)CC1 (stereo not drawn) [MPL-346, 5-chloro-N-(1,1-dimethylsilepan-4-yl)-4-fluoro-1H-pyrrolo[2,3-c]pyridine-2-carboxamide] | 0.464 (≈ 1.31 µM)
13 | O=C(NC1CC[Si]2(CCCCC2)CC1)c1cc2c(F)c(Cl)ncc2[nH]1 [MPL-348, 5-chloro-4-fluoro-N-(6-silaspiro[5.5]undecan-3-yl)-1H-pyrrolo[2,3-c]pyridine-2-carboxamide] | 0.435 (≈ 1.14 µM)
14 | C[Si]1(C)CCC(NC(=O)c2cc3c(Cl)c(Cl)ncc3[nH]2)CC1 [MPL-349, 4,5-dichloro-N-(1,1-dimethylsilinan-4-yl)-1H-pyrrolo[2,3-c]pyridine-2-carboxamide] | 0.068 (≈ 0.191 µM)
15 | C[Si]1(C)CCCC(NC(=O)c2cc3c(Cl)c(Cl)ncc3[nH]2)CC1 (stereo not drawn) [MPL-350, 4,5-dichloro-N-(1,1-dimethylsilepan-4-yl)-1H-pyrrolo[2,3-c]pyridine-2-carboxamide] | 0.247 (≈ 0.667 µM)
16 | Cc1ncc2[nH]c(C(=O)NC3CCC[Si](C)(C)CC3)cc2c1F (stereo not drawn) [MPL-351, N-(1,1-dimethylsilepan-4-yl)-4-fluoro-5-methyl-1H-pyrrolo[2,3-c]pyridine-2-carboxamide] | 0.248 (≈ 0.744 µM)
17 | Cc1ncc2[nH]c(C(=O)NC3CC[Si](C)(C)CC3)c(C)c2c1F [MPL-352, N-(1,1-dimethylsilinan-4-yl)-4-fluoro-3,5-dimethyl-1H-pyrrolo[2,3-c]pyridine-2-carboxamide] | 0.122 (≈ 0.366 µM)
18 | Cc1ncc2[nH]c(C(=O)NC3CCC[Si](C)(C)CC3)c(C)c2c1F (stereo not drawn) [MPL-353, N-(1,1-dimethylsilepan-4-yl)-4-fluoro-3,5-dimethyl-1H-pyrrolo[2,3-c]pyridine-2-carboxamide] | 0.124 (≈ 0.357 µM)
19 | C[Si]1(C)CCCC(NC(=O)c2cc3c(F)c(C(F)(F)F)ncc3[nH]2)CC1 (stereo not drawn) [MPL-366, N-(1,1-dimethylsilepan-4-yl)-4-fluoro-5-(trifluoromethyl)-1H-pyrrolo[2,3-c]pyridine-2-carboxamide] | 0.492 (≈ 1.27 µM)
20 | O=C(NC1CC[Si]2(CCCC2)CC1)c1cc2c(F)c(C(F)(F)F)ncc2[nH]1 [MPL-367, 4-fluoro-N-(5-silaspiro[4.5]decan-8-yl)-5-(trifluoromethyl)-1H-pyrrolo[2,3-c]pyridine-2-carboxamide] | 0.988 (≈ 2.47 µM)

Row | SMILES | MIC [µg/mL]
21 | O=C(NC1CC[Si]2(CCCCC2)CC1)c1cc2c(F)c(C(F)(F)F)ncc2[nH]1 [MPL-368, 4-fluoro-N-(6-silaspiro[5.5]undecan-3-yl)-5-(trifluoromethyl)-1H-pyrrolo[2,3-c]pyridine-2-carboxamide] | 0.49 (≈ 1.19 µM)
22 | Cc1c(C(F)(F)F)ncc2[nH]c(C(=O)NC3CC[Si](C)(C)CC3)cc12 [MPL-376, N-(1,1-dimethylsilinan-4-yl)-4-methyl-5-(trifluoromethyl)-1H-pyrrolo[2,3-c]pyridine-2-carboxamide] | 0.188 (≈ 0.509 µM)
23 | COc1c(C(F)(F)F)ncc2[nH]c(C(=O)NC3CC[Si](C)(C)CC3)cc12 [MPL-379, N-(1,1-dimethylsilinan-4-yl)-4-methoxy-5-(trifluoromethyl)-1H-pyrrolo[2,3-c]pyridine-2-carboxamide] | 0.332 (≈ 0.861 µM)
24 | CC(C)Oc1cncc2[nH]c(C(=O)NC3CC[Si](C)(C)CC3)cc12 [MPL-382, N-(1,1-dimethylsilinan-4-yl)-4-isopropoxy-1H-pyrrolo[2,3-c]pyridine-2-carboxamide] | 0.368 (≈ 1.07 µM)
25 | C[Si]1(C)CCC(NC(=O)c2cc3ccc(-c4ccccc4)nc3[nH]2)CC1 [MPL-388, N-(1,1-dimethylsilinan-4-yl)-6-phenyl-1H-pyrrolo[2,3-b]pyridine-2-carboxamide] | 0.012 (≈ 0.033 µM)
26 | C[Si]1(C)CCC(NC(=O)c2cc3ccc(-c4cccnc4)nc3[nH]2)CC1 [MPL-389, N-(1,1-dimethylsilinan-4-yl)-6-(3-pyridyl)-1H-pyrrolo[2,3-b]pyridine-2-carboxamide] | 0.216 (≈ 0.593 µM)
27 | C[Si]1(C)CCC(NC(=O)c2cc3cc(-c4ccccc4)cnc3[nH]2)CC1 [MPL-391, N-(1,1-dimethylsilinan-4-yl)-5-phenyl-1H-pyrrolo[2,3-b]pyridine-2-carboxamide] | 0.051 (≈ 0.14 µM)
28 | C[Si]1(C)CCC(NC(=O)c2cc3cc(-c4cccnc4)cnc3[nH]2)CC1 [MPL-392, N-(1,1-dimethylsilinan-4-yl)-5-(3-pyridyl)-1H-pyrrolo[2,3-b]pyridine-2-carboxamide] | 0.464 (≈ 1.27 µM)
29 | C[Si]1(C)CCC(NC(=O)c2cc3cc(C(F)(F)F)ncc3[nH]2)C1 (stereo not drawn) [MPL-402, N-(1,1-dimethylsilolan-3-yl)-5-(trifluoromethyl)-1H-pyrrolo[2,3-c]pyridine-2-carboxamide] | 0.962 (≈ 2.82 µM)
30 | O=C(NC1CC[Si]2(CCCCC2)CC1)c1cc2cc(-c3ccccc3F)cnc2[nH]1 [MPL-434, 5-(2-fluorophenyl)-N-(6-silaspiro[5.5]undecan-3-yl)-1H-pyrrolo[2,3-b]pyridine-2-carboxamide] | 0.061 (≈ 0.145 µM)
31 | O=C(NC1CC[Si]2(CCCCC2)CC1)c1cc2cc(-c3cccnc3)cnc2[nH]1 [MPL-435, 5-(3-pyridyl)-N-(6-silaspiro[5.5]undecan-3-yl)-1H-pyrrolo[2,3-b]pyridine-2-carboxamide] | 1 (≈ 2.47 µM)
32 | C[Si]1(C)CCC(NC(=O)c2cc3cc(-c4ccccc4)ncc3[nH]2)CC1 [MPL-445] | 0.119 (≈ 0.327 µM)
33 | Cc1c(C(F)(F)F)ncc2[nH]c(C(=O)NC3CCC[Si](C)(C)CC3)cc12 (stereo not drawn) [MPL-451, N-(1,1-dimethylsilepan-4-yl)-4-methyl-5-(trifluoromethyl)-1H-pyrrolo[2,3-c]pyridine-2-carboxamide] | 0.99 (≈ 2.58 µM)
34 | COc1ncc2[nH]c(C(=O)NC3CC[Si](C)(C)CC3)cc2c1C(F)(F)F [MPL-452, N-(1,1-dimethylsilinan-4-yl)-5-methoxy-4-(trifluoromethyl)-1H-pyrrolo[2,3-c]pyridine-2-carboxamide] | 0.118 (≈ 0.306 µM)
35 | COc1ccc2cc(C(=O)NC3CC[Si]4(CCCC4)CC3)[nH]c2n1 [MPL-454, 6-methoxy-N-(5-silaspiro[4.5]decan-8-yl)-1H-pyrrolo[2,3-b]pyridine-2-carboxamide] | 0.458 (≈ 1.33 µM)
36 | COc1ccc2cc(C(=O)NC3CC[Si]4(CCCCC4)CC3)[nH]c2n1 [MPL-455, 6-methoxy-N-(6-silaspiro[5.5]undecan-3-yl)-1H-pyrrolo[2,3-b]pyridine-2-carboxamide] | 0.121 (≈ 0.338 µM)
37 | COc1cc(Cl)c2cc(C(=O)NC3CC[Si](C)(C)CC3)[nH]c2n1 [MPL-465, 4-chloro-N-(1,1-dimethylsilinan-4-yl)-6-methoxy-1H-pyrrolo[2,3-b]pyridine-2-carboxamide] | 0.008 (≈ 0.0227 µM)
38 | COc1ccc2cc(C(=O)NC3CCC[Si](C)(C)CC3)[nH]c2n1 (stereo not drawn) [MPL-466, N-(1,1-dimethylsilepan-4-yl)-6-methoxy-1H-pyrrolo[2,3-b]pyridine-2-carboxamide] | 0.119 (≈ 0.359 µM)
39 | C[Si]1(C)CCC(NC(=O)c2cc3ccc(OC4CCC4)nc3[nH]2)CC1 [MPL-467, 6-(cyclobutoxy)-N-(1,1-dimethylsilinan-4-yl)-1H-pyrrolo[2,3-b]pyridine-2-carboxamide] | 0.121 (≈ 0.338 µM)
40 | COc1ccc2cc(C(=O)NC3CCC[Si](C)(C)CCC3)[nH]c2n1 [MPL-469, N-(1,1-dimethylsilocan-5-yl)-6-methoxy-1H-pyrrolo[2,3-b]pyridine-2-carboxamide] | 0.206 (≈ 0.596 µM)

Each compound was assayed on Mycobacterium abscessus (assay: MIC against Mycobacterium abscessus (Mab_ATCC, MHII broth)). Conditions: Mycobacteroides abscessus; Mycobacterium abscessus ATCC strain; Mueller-Hinton broth (MHII).
Assay type: cell-based
Description: Key for Tables: MIC: Minimum Inhibitory Concentration; MABA: microplate-based Alamar Blue assay; Mab: Mycobacterium abscessus; ATCC: American Type Culture Collection; and MHII: Mueller-Hinton broth.

Row | SMILES | MIC [µg/mL]
41 | Cc1nc2[nH]c(C(=O)N[C@H]3CC[Si](C)(C)C3)cc2c(F)c1F (single isomer, unassigned) [MPL-295B] | 0.12 (≈ 0.371 µM)
42 | CC1(C)C2CCC1(C)C(NC(=O)c1cc3c(F)cncc3[nH]1)C2 (stereo not drawn) [MPL-188, 4-fluoro-N-(1,7,7-trimethylnorbornan-2-yl)-1H-pyrrolo[2,3-c]pyridine-2-carboxamide] | 8 (≈ 25.4 µM)
